This is an account of results in patent publication US20250368649A1, “TETRAHYDROPYRIDOPYRIMIDINE PAN-KRAS INHIBITORS” (Mirati Therapeutics, Inc., priority 2022, published 2025).

One assay addresses KRas G12V (Homo sapiens, UniProt P01116, G12V). The experiment in a line: biochemical. The settings on record: Binding to KRas (IC50 nM) G12V, TR-FRET displacement, KRas G12V.
The target in another assay is KRas G12D (Homo sapiens, UniProt P01116, G12D). Kind of assay: biochemical. The settings on record: Binding to KRas (IC50 nM) G12D, TR-FRET displacement, KRas G12D.
KRas G12D, sequence (P01116 1-169 isoform P01116-2 G12D): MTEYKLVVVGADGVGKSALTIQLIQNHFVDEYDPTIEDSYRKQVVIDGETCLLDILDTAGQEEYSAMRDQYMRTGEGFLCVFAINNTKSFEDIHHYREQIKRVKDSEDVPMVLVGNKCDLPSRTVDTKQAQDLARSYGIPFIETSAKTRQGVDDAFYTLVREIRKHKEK
The next assay relates to H358 cells. Kind of assay: Inhibition of KRas-mediated phosphorylation of ERK (Cisbio HTRF pERK), H358 cells. It is filed as cell-based. To be noted: Homo sapiens; for inhibition at 0.1 µM: NCI-H358, single point at 100 nM, 3 hrs compound incubation.
Another assay has as its system HCT116 cells. Kind of assay: Inhibition of KRas-mediated phosphorylation of ERK (Cisbio HTRF pERK), HCT116 cells. It is filed as cell-based. The settings on record: Homo sapiens; for inhibition at 0.1 µM: HCT-116, single point at 100 nM, 3 hrs compound incubation.
For the next assay, the target named is KRas G12R (Homo sapiens, UniProt P01116, G12R). Kind of assay: biochemical. The settings on record: Binding to KRas (IC50 nM) G12R, TR-FRET displacement, KRas G12R.
KRas G12R, sequence (P01116 1-169 isoform P01116-2 G12R): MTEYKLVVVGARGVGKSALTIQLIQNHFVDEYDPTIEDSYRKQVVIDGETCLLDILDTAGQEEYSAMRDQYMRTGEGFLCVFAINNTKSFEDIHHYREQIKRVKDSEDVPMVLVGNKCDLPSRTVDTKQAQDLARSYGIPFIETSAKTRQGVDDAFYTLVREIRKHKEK
The subject of a further assay is ASPC1 cells. Kind of assay: Inhibition of KRas-mediated phosphorylation of ERK (Cisbio HTRF pERK), ASPC1 cells. The settings on record: Homo sapiens, ASPC1, 3 h, AsPC-1 cells; 3 hr compound incubation; Cisbio pERK HTRF. It is filed as cell-based.
For another assay, the system named is H460 cells. Kind of assay: Inhibition of KRas-mediated phosphorylation of ERK (Cisbio HTRF pERK), H460 cells. The settings on record: Homo sapiens; for inhibition at 0.1 µM: NCI-H460, single point at 100 nM, 3 hrs compound incubation. It is filed as cell-based.
A further assay relates to A549 cells. The experiment in a line: Inhibition of KRas-mediated phosphorylation of ERK (Cisbio HTRF pERK), A549 cells. It is filed as cell-based. The settings on record: Homo sapiens; for inhibition at 0.1 µM: single point at 100 nM, 3 hrs compound incubation.
For the next assay, the system named is H727 cells. Kind of assay: Inhibition of KRas-mediated phosphorylation of ERK (Cisbio HTRF pERK), H727 cells. It is filed as cell-based. To be noted: Homo sapiens, NCI-H727, 3 h, 3 hr compound incubation, Cisbio pERK HTRF.

KRas G12V, sequence (P01116 1-169 isoform P01116-2 G12V): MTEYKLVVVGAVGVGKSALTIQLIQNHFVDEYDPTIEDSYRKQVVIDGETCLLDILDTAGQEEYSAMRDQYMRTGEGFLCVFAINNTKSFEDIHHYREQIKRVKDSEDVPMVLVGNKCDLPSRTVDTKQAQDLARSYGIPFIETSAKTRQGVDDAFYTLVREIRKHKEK

In the case of `CCc1c(F)ccc2cc(O)cc(N3CCc4c(nc(OC[C@@]56CCCN5C[C@H](F)C6)nc4N4CCCCC(C(N)=O)C4)C3)c12` (stereo partly drawn) [Example 315, 1-(7-(8-ethyl-7-fluoro-3-hydroxynaphthalen-1-yl)-2-(((2R,7aS)-2-fluorohexahydro-1H-pyrrolizin-7a-yl)methoxy)-5,6,7,8-tetrahydropyrido[3,4-d]pyrimidin-4-yl)azepane-3-carboxamide], the half-maximal inhibitory concentration (IC50) on KRas G12V was determined as 3 nM; at KRas G12D, 9 nM; on KRas G12R it was 5 nM; in the assay with ASPC1 cells it was 1300 nM; with H727 cells, 681 nM. In addition, the inhibition at 0.1 µM is 11% in the assay with H358 cells, 2% with HCT116 cells, 4% with H460 cells and -26% in the assay with A549 cells.
Consider `CCc1c(F)ccc2cc(O)cc(N3CCc4c(nc(OC[C@@]56CCCN5C[C@H](F)C6)nc4N4CCCn5nc(CCCC(=O)N(C)C)cc5C4)C3)c12` [Example 316, 4-(5-(7-(8-ethyl-7-fluoro-3-hydroxynaphthalen-1-yl)-2-(((2R,7aS)-2-fluorohexahydro-1H-pyrrolizin-7a-yl)methoxy)-5,6,7,8-tetrahydropyrido[3,4-d]pyrimidin-4-yl)-5,6,7,8-tetrahydro-4H-pyrazolo[1,5-a][1,4]diazepin-2-yl)-N,N-dimethylbutanamide], for which the IC50 at KRas G12V was found to be 5 nM; at KRas G12D, 6 nM; in the assay with H358 cells (NCI-H358, 3 h, 3 hr compound incubation, Cisbio pERK HTRF) it was 536 nM; in the assay with HCT116 cells (HCT-116, 3 h, 3 hr compound incubation, Cisbio pERK HTRF), 3140 nM; on KRas G12R, 6 nM; with ASPC1 cells, 879 nM. In addition, the half-maximal inhibitory concentration (IC50) in the assay on H460 cells (NCI-H460, 3 h, 3 hr compound incubation, Cisbio pERK HTRF) stood at 1770 nM; in the assay on A549 cells (A549, 3 h, 3 hr compound incubation, Cisbio pERK HTRF), 1390 nM; in the assay with H727 cells it was 687 nM. Further, the inhibition at 0.1 µM in the assay with H358 cells is -22%; in the assay with HCT116 cells, -2%; in the assay on H460 cells, -20%; with A549 cells, -4%.
In the case of `CCc1c(F)ccc2cc(O)cc(N3CCc4c(nc(OC[C@@]56CCCN5C[C@H](F)C6)nc4N4CCCn5nc(N(C)S(=O)(=O)C(C)C)cc5C4)C3)c12` [Example 321, N-(5-(7-(8-ethyl-7-fluoro-3-hydroxynaphthalen-1-yl)-2-(((2R,7aS)-2-fluorohexahydro-1H-pyrrolizin-7a-yl)methoxy)-5,6,7,8-tetrahydropyrido[3,4-d]pyrimidin-4-yl)-5,6,7,8-tetrahydro-4H-pyrazolo[1,5-a][1,4]diazepin-2-yl)-N-methylpropane-2-sulfonamide], the IC50 at KRas G12V was found to be 171 nM; at KRas G12D, 69 nM; at KRas G12R, 146 nM; in the assay with ASPC1 cells, 1900 nM; with H727 cells, 1920 nM. The inhibition at 0.1 µM came out at 7% in the assay with H358 cells, 5% with HCT116 cells, 16% with H460 cells and 14% with A549 cells.
As for `CCc1c(F)ccc2cc(O)cc(N3CCc4c(nc(OC[C@@]56CCCN5C[C@H](F)C6)nc4N4CCCn5nc(CNS(=O)(=O)NC)cc5C4)C3)c12` [Example 324, 7-(8-ethyl-7-fluoro-3-hydroxy-1-naphthyl)-2-(((2R,7aS)-2-fluorotetrahydro-1H-pyrrolizin-7a(5H)-yl)methoxy)-4-(2-((methylsulfamoyl)amino)methyl-7,8-dihydro-4H-pyrazolo[1,5-a][1,4]diazepin-5(6H)-yl)-6,8-dihydro-5H-pyrido[3,4-d]pyrimidine], the IC50 on KRas G12V is 6 nM; at KRas G12D it was 2 nM; at KRas G12R, 4 nM; in the assay with ASPC1 cells it was 830 nM; in the assay with H727 cells, 1180 nM. The inhibition at 0.1 µM in the assay with H358 cells is 4%; in the assay on HCT116 cells, -1%; in the assay on H460 cells, 21%; with A549 cells, 11%.
With `CCc1c(F)ccc2cc(O)cc(N3CCc4c(nc(OC[C@@]56CCCN5C[C@H](F)C6)nc4N4CCCn5nc(N(C)S(C)(=O)=O)cc5C4)C3)c12` [Example 334, N-(5-(7-(8-ethyl-7-fluoro-3-hydroxynaphthalen-1-yl)-2-(((2R,7aS)-2-fluorohexahydro-1H-pyrrolizin-7a-yl)methoxy)-5,6,7,8-tetrahydropyrido[3,4-d]pyrimidin-4-yl)-5,6,7,8-tetrahydro-4H-pyrazolo[1,5-a][1,4]diazepin-2-yl)-N-methylmethanesulfonamide], the IC50 at KRas G12V stood at 50 nM; on KRas G12D, 12 nM; at KRas G12R, 43 nM; with ASPC1 cells, 999 nM; in the assay with H727 cells it was 1690 nM. The inhibition at 0.1 µM was 2% in the assay with H358 cells, 12% in the assay on HCT116 cells, -1% with H460 cells and 12% in the assay on A549 cells.
For the compound `CCc1c(F)ccc2cc(O)cc(N3CCc4c(nc(OC[C@@]56CCCN5C[C@H](F)C6)nc4N4CCCn5nc(N(C)C(=O)C(C)C)cc5C4)C3)c12` [Example 335, N-(5-(7-(8-ethyl-7-fluoro-3-hydroxynaphthalen-1-yl)-2-(((2R,7aS)-2-fluorohexahydro-1H-pyrrolizin-7a-yl)methoxy)-5,6,7,8-tetrahydropyrido[3,4-d]pyrimidin-4-yl)-5,6,7,8-tetrahydro-4H-pyrazolo[1,5-a][1,4]diazepin-2-yl)-N-methylisobutyramide], the IC50 at KRas G12V is 44 nM; on KRas G12D it was 29 nM; at KRas G12R it was 32 nM; with ASPC1 cells, 779 nM; with H727 cells, 656 nM. For the same compound, the inhibition at 0.1 µM with H358 cells turned out to be 0%; with HCT116 cells, 15%; in the assay with H460 cells it was 10%; in the assay on A549 cells, 13%.
With `CCc1c(F)ccc2cc(O)cc(N3CCc4c(nc(OC[C@@]56CCCN5C[C@H](F)C6)nc4N4CCCn5nc(CN(C)S(=O)(=O)N(C)C)cc5C4)C3)c12` [Example 343, 7-(8-ethyl-7-fluoro-3-hydroxy-1-naphthyl)-2-(((2R,7aS)-2-fluorotetrahydro-1H-pyrrolizin-7a(5H)-yl)methoxy)-4-(2-((dimethylsulfamoyl)methylamino)methyl-7,8-dihydro-4H-pyrazolo[1,5-a][1,4]diazepin-5(6H)-yl)-6,8-dihydro-5H-pyrido[3,4-d]pyrimidine], the IC50 was determined as 21 nM at KRas G12V; 8 nM at KRas G12D; 18 nM at KRas G12R; 445 nM with ASPC1 cells; 335 nM in the assay with H727 cells. For the same compound, the inhibition at 0.1 µM was -13% in the assay on H358 cells, -2% in the assay with HCT116 cells, 7% with H460 cells and 4% with A549 cells.
With `CCc1c(F)ccc2cc(O)cc(N3CCc4c(nc(OC[C@@]56CCCN5C[C@H](F)C6)nc4N4CCCCC(CC(=O)NC)C4)C3)c12` (stereo partly drawn) [Example 346, 2-(1-(7-(8-ethyl-7-fluoro-3-hydroxynaphthalen-1-yl)-2-(((2R,7aS)-2-fluorohexahydro-1H-pyrrolizin-7a-yl)methoxy)-5,6,7,8-tetrahydropyrido[3,4-d]pyrimidin-4-yl)azepan-3-yl)-N-methylacetamide], the IC50 is 4 nM at KRas G12V; 6 nM at KRas G12D; less than 2 nM on KRas G12R; 1220 nM with ASPC1 cells; 822 nM in the assay with H727 cells. Besides, the inhibition at 0.1 µM in the assay on H358 cells worked out at 11%; in the assay on HCT116 cells it was 7%; in the assay on H460 cells, 9%; with A549 cells, 19%.
Consider `CCc1c(F)ccc2cc(O)cc(N3CCc4c(nc(OC[C@@]56CCCN5C[C@H](F)C6)nc4N4CCCCC(CC(N)=O)C4)C3)c12` (stereo partly drawn) [Example 347, 2-(1-(7-(8-ethyl-7-fluoro-3-hydroxynaphthalen-1-yl)-2-(((2R,7aS)-2-fluorohexahydro-1H-pyrrolizin-7a-yl)methoxy)-5,6,7,8-tetrahydropyrido[3,4-d]pyrimidin-4-yl)azepan-3-yl)acetamide], for which the IC50 at KRas G12V turned out to be 2 nM; at KRas G12D it was 7 nM; on KRas G12R it was 2 nM; in the assay on ASPC1 cells, 690 nM; in the assay with H727 cells, 541 nM. The inhibition at 0.1 µM was 5% in the assay on H358 cells, -14% with HCT116 cells, 21% in the assay on H460 cells and 28% with A549 cells.
With `CCc1c(F)ccc2cc(O)cc(N3CCc4c(nc(OC[C@@]56CCCN5C[C@H](F)C6)nc4N4CCCCC(P(C)(C)=O)C4)C3)c12` (stereo partly drawn) [Example 351, (1-(7-(8-ethyl-7-fluoro-3-hydroxynaphthalen-1-yl)-2-(((2R,7aS)-2-fluorotetrahydro-1H-pyrrolizin-7a(5H)-yl)methoxy)-5,6,7,8-tetrahydropyrido[3,4-d]pyrimidin-4-yl)azepan-3-yl)dimethylphosphine oxide], the IC50 came out at 6 nM at KRas G12V; 12 nM at KRas G12D; 4 nM at KRas G12R; 3660 nM with ASPC1 cells; 1060 nM in the assay on H727 cells. In addition, the inhibition at 0.1 µM in the assay on H358 cells was -7%; with HCT116 cells, 5%; with H460 cells, 1%; with A549 cells it was 11%.
